# Source: article PMC12196347, “Evaluating Triazole-Substituted Pyrrolopyrimidines as CSF1R Inhibitors” (Molecules, 2025)
# What was measured:
# [1] = Caco-2 permeability assay; format: in vitro ADME; conditions: human; Caco-2 cell assay
# [2] = Mouse plasma protein binding; format: in vitro ADME; conditions: fraction bound, read-out: PPB (converted)
# CSF1R [3] = target: T1, CSF1R (Homo sapiens, UniProt P07333); test: CSF1R enzymatic inhibition, TR-FRET-based LANCE Ultra assay; format: biochemical; conditions: single 8-point titrations, ATP concentration 25 µM, read-out: Enz. IC50
# T1 sequence (P07333 539-972 limits assumed): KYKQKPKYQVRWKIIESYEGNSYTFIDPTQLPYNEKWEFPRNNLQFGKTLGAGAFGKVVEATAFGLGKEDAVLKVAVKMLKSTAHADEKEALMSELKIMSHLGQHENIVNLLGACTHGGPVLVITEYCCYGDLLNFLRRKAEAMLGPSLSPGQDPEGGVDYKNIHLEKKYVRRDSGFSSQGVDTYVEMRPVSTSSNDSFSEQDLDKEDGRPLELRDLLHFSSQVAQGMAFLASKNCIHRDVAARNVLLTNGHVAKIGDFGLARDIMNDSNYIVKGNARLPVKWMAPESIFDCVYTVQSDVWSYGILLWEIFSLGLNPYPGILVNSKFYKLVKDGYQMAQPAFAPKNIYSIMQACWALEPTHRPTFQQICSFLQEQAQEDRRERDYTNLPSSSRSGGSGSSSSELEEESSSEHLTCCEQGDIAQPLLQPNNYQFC
# CSF1R Ba/F3 cells = test: Cell viability assay, Ba/F3 cells engineered to be dependent on CSF1R; format: cell-based; conditions: duplicate measurements
# [4] = tested on: IL-3 dependent Ba/F3 cell line (CSF1R independent); test: Control assay for cellular toxicity, Ba/F3 cells dependent on IL-3; format: cell-based; conditions: Mus musculus, BaF3; Ba/F3 cells dependent on IL-3, control for cellular toxicity
# [5] = Kinetic solubility, spectrophotometric; format: physicochemical; conditions: aqueous buffer, kinetic from dmso stock, spectrophotometrically at pH 7.4 in HEPES buffer
# CSF1R [6] = target: CSF1R (Homo sapiens, UniProt P07333); test: CSF1R enzymatic IC50, Z-LYTE assay platform; format: biochemical; conditions: for Hill coefficient: Z-LYTE CSF1R IC50 curve; for IC50: Z-LYTE, 10-point titrations in duplicates, ATP equal to KM ca. 10 µM, read-out: CSF1R enz. IC50
# Target sequence in this assay (P07333 20-972): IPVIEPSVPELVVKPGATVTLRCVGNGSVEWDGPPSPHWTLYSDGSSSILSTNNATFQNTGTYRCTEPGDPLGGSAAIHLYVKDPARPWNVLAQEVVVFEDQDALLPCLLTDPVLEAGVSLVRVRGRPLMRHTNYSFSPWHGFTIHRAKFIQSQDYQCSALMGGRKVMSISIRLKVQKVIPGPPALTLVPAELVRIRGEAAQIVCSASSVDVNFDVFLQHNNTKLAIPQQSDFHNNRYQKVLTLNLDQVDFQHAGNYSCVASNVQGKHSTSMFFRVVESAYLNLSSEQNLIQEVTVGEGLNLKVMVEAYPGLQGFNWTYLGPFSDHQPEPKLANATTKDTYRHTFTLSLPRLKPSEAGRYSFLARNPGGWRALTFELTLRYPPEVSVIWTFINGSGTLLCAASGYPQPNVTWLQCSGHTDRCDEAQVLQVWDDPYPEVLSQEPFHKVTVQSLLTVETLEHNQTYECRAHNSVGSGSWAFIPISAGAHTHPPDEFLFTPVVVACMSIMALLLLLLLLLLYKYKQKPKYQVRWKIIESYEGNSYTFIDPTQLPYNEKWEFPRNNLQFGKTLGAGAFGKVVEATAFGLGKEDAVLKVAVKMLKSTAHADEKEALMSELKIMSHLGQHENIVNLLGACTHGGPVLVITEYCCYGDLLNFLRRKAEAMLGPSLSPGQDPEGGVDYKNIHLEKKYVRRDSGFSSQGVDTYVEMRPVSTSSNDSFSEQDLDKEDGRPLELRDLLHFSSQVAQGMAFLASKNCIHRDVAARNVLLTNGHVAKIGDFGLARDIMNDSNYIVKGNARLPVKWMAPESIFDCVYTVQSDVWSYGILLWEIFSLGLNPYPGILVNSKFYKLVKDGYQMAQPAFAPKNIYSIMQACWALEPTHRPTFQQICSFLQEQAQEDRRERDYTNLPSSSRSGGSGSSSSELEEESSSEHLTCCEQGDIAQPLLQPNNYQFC
# cKIT kinase = target: T2, cKIT kinase (Homo sapiens, UniProt P10721); test: KIT inhibition (KD), TR-FRET tracer displacement; format: binding; conditions: kinase tracer 236, anti-GST antibody Eu-conjugate, read-out: KIT enz. KD
# T2 construct: purchased Carna Biosciences
# [7] = tested on: KIT-positive cell line GIST-T1; test: GIST-T1 CellTiter-Glo cell viability assay; format: cell-based; conditions: Homo sapiens, GISTT1; cellular proliferation, GIST-T1, 72 h
# [8] = Human liver microsome intrinsic clearance, Phase I; format: in vitro ADME; conditions: in vitro intrinsic clearance
# [9] = Mouse liver microsome intrinsic clearance, Phase I; format: in vitro ADME; conditions: in vitro intrinsic clearance
# MDCK permeability assay = format: in vitro ADME, canine; conditions: dog, MDCK cell monolayer; for Papp A→B: A-B direction; for Papp B→A: B-A direction; for efflux ratio: read-out: Ratio Papp B > A/Papp A > B
# [10] = Mus musculus, BaF3, Ba/F3 cells dependent on CSF1R
# T2 sequence (P10721 26-976): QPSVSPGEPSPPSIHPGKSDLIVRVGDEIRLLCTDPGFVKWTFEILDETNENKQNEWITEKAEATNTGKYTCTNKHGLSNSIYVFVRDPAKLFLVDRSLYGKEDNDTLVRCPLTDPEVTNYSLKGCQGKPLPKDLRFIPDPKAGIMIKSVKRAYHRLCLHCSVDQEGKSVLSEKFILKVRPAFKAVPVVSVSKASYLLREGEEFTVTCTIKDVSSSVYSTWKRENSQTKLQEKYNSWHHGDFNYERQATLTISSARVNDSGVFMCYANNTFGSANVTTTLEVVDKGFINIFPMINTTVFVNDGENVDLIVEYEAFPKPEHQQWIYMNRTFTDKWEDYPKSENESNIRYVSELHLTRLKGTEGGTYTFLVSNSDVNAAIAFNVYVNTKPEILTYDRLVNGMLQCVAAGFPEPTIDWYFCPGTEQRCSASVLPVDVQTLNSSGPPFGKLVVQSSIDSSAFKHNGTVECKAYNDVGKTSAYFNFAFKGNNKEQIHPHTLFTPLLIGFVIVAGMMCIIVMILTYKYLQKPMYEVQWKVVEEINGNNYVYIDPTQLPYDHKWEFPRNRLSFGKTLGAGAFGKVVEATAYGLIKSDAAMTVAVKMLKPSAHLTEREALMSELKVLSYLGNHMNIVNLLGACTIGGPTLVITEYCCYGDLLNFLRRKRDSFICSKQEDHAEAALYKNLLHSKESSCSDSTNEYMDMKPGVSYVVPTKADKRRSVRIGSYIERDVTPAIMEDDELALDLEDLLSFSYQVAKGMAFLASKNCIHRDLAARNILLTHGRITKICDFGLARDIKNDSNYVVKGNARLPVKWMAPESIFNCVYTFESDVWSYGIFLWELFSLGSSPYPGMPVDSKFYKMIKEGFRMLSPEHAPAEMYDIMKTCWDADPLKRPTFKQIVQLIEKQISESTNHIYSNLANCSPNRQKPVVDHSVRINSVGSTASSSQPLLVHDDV
SMILES,Papp A→B [1],Papp B→A [1],fraction unbound [2],IC50 (CSF1R [3]),IC50 (CSF1R Ba/F3 cells; [10]),solubility kinetic [5],Hill coefficient (CSF1R [6]),IC50 (CSF1R [6]),Kd (cKIT kinase),HLM [8],MLM [9],Papp A→B (MDCK permeability assay),Papp B→A (MDCK permeability assay),efflux ratio (MDCK permeability assay),IC50 (CSF1R Ba/F3 cells; Ba/F3 cells dependent on CSF1R),IC50 [4],IC50 [7]
Cc1cccc(CN(C)c2ncnc3[nH]c(-c4ccc(CO)cc4)cc23)c1 [Structure III],0.69 ×10⁻⁶ cm/s,0.19 ×10⁻⁶ cm/s,–,–,–,–,–,–,–,–,–,–,–,–,–,–,–
"CN(CC1CCOCC1)c1ncnc2[nH]c(-c3ccc(N)cc3)cc12 [Structure IV, reference compound]",–,–,0.236,–,–,–,–,–,–,–,–,–,–,–,–,–,–
"FC(F)(F)c1ccc(CNc2ccc(Cc3c[nH]c4ncc(Cl)cc34)cn2)cn1 [PLX-3397, pexidartinib, reference compound]",–,–,< 0.01,–,60 ± 100 nM,–,1.18,–,–,–,–,–,–,–,–,> 10000 nM,30 nM
"Cc1cccc(CN(C)c2ncnc3[nH]c(-c4cn(C5CCN(C)CC5)nn4)cc23)c1 [Compound 30a, N-Methyl-N-(3-methylbenzyl)-6-(1-(1-methylpiperidin-4-yl)-1H-1,2,3-triazol-4-yl)-7H-pyrrolo[2,3-d]pyrimidin-4-amine]",–,–,–,< 1 nM,1100 ± 100 nM,51 µM,–,–,–,–,–,–,–,–,–,> 10000 nM,–

# Now from value to molecule, other results behind:
Papp A→B [1],Papp B→A [1],fraction unbound [2],IC50 (CSF1R [3]),IC50 (CSF1R Ba/F3 cells; [10]),solubility kinetic [5],Hill coefficient (CSF1R [6]),IC50 (CSF1R [6]),Kd (cKIT kinase),HLM [8],MLM [9],Papp A→B (MDCK permeability assay),Papp B→A (MDCK permeability assay),efflux ratio (MDCK permeability assay),IC50 (CSF1R Ba/F3 cells; Ba/F3 cells dependent on CSF1R),SMILES,IC50 [4],IC50 [7]
–,–,0.24,3 nM,600 ± 200 nM,7.3 µM,0.913,1.2 ± 0.3 nM,> 1000 nM,74.5 µL/min/mg,288 µL/min/mg,10.7 ×10⁻⁶ cm/s,13.6 ×10⁻⁶ cm/s,1.3,–,"COc1ccc(-n2cc(-c3cc4c(N(C)CC5CCOCC5)ncnc4[nH]3)nn2)cc1 [Compound 21b, 6-(1-(4-Methoxyphenyl)-1H-1,2,3-triazol-4-yl)-N-methyl-N-((tetrahydro-2H-pyran-4-yl)methyl)-7H-pyrrolo[2,3-d]pyrimidin-4-amine]",> 10000 nM,> 30000 nM
–,–,0.025,< 1 nM,1000 nM,10.6 µM,0.981,1.3 nM,> 100 nM,62.4 µL/min/mg,1980 µL/min/mg,10 ×10⁻⁶ cm/s,25.4 ×10⁻⁶ cm/s,2.6,500 nM,"Cc1ccc(Cn2cc(-c3cc4c(N(C)CC5CCOCC5)ncnc4[nH]3)nn2)cc1 [Compound 25b, N-Methyl-6-(1-(4-methylbenzyl)-1H-1,2,3-triazol-4-yl)-N-((tetrahydro-2H-pyran-4-yl)methyl)-7H-pyrrolo[2,3-d]pyrimidin-4-amine]",> 10000 nM,> 3000 nM
–,–,< 0.01,1.8 nM,1700 ± 100 nM,43 µM,–,–,–,–,–,–,–,–,–,"CN(CC1CCOCC1)c1ncnc2[nH]c(-c3cn(Cc4cccnc4)nn3)cc12 [Compound 27b, N-Methyl-6-(1-(pyridin-3-ylmethyl)-1H-1,2,3-triazol-4-yl)-N-((tetrahydro-2H-pyran-4-yl)methyl)-7H-pyrrolo[2,3-d]pyrimidin-4-amine]",> 10000 nM,–
